{"source": "paper PMC8160025", "about": "(Nanomedicine : nanotechnology, biology, and medicine, 2020)", "key": {"[1]": {"conditions": "children; cited from earlier work"}, "[2]": {"conditions": "cited from earlier work"}, "albumin": {"test_system": "albumin", "conditions": "4 h post administration, SPE"}, "serum protein": {"test_system": "serum protein", "experiment": "Unbound vismodegib over time after incubation in FBS", "format": "in vitro ADME, bovine", "conditions": "30 min incubation"}, "[3]": {"experiment": "Bone toxicity: femur length by CT scan and direct measurement", "format": "in vivo, mouse", "conditions": "4 daily doses of 100 mg/kg IP from P10"}, "[4]": {"experiment": "Pharmacokinetics by LC-MS in medulloblastoma-bearing G-Smo mice", "conditions": "mouse, in vivo, ip, 100 mg/kg"}, "[5]": {"test_system": "SHH-driven medulloblastoma", "experiment": "Survival", "format": "in vivo, mouse", "conditions": "100 mg/kg IP or orally, or 50 mg/kg IP"}, "phosphorylated RB (pRB)": {"test_system": "phosphorylated RB (pRB)", "experiment": "Pharmacodynamics: pRB+ / PCNA proliferation markers in G-Smo medulloblastoma", "format": "in vivo, mouse", "conditions": "for suppression of pRB+ cell fraction in tumors: 24 h"}, "[6]": {"experiment": "Spatial distribution of vismodegib in brain sections by IR-MALDESI", "format": "in vivo, mouse", "conditions": "4 h after IP injection"}, "[7]": {"conditions": "4 h"}}, "data": [{"smiles": "CS(=O)(=O)c1ccc(C(=O)Nc2ccc(Cl)c(-c3ccccn3)c2)c(Cl)c1", "note": "[vismodegib]", "values": [{"measurement": "drug levels in the CSF as % of the concentration of unbound vismodegib", "setting": "[1]", "value": "26-78%"}, {"measurement": "drug levels in the CSF as % of total plasma vismodegib", "setting": "[1]", "value": 0.26, "unit": "%"}, {"measurement": "oral bioavailability", "setting": "[2]", "value": 31.8, "unit": "%"}, {"measurement": "drug albumin-bound in serum", "setting": "albumin", "value": 90, "unit": "%"}, {"measurement": "vismodegib unbound in serum", "setting": "albumin", "value": 9, "unit": "%"}, {"measurement": "unbound fraction of total vismodegib", "setting": "serum protein", "value": "marginal"}, {"measurement": "femur length", "setting": "[3]", "value": "reduced femur length"}, {"measurement": "Kp", "setting": "[4]", "value": 0.439}, {"measurement": "event free survival (EFS)", "setting": "[5]", "value": "failed to extend the EFS"}, {"measurement": "suppression of pRB", "setting": "phosphorylated RB (pRB); 50 mg/kg IP", "value": "sufficient to suppress pRB"}, {"measurement": "suppression of pRB+ cell fraction in tumors", "setting": "phosphorylated RB (pRB); single 100 mg/kg IP", "value": "similarly suppressed pRB"}, {"measurement": "suppression of pRB+ cell fraction in tumors", "setting": "phosphorylated RB (pRB); single 100 mg/kg oral", "value": "less suppression"}, {"measurement": "distribution of vismodegib in tumor and forebrain", "setting": "[6]", "value": "evenly distributed"}, {"measurement": "vismodegib level in serum", "setting": "[7]; 100 mg/kg, systemic (IP)", "value": "comparable levels to POx-vismo"}, {"measurement": "vismodegib concentrations in blood, tumor and forebrain compared to POx-vismo", "setting": "[7]; oral gavage", "value": "significantly lower"}]}]}
